Source: US11964984B2, “TXNIP-TRX complex inhibitors and methods of using the same” (CITY OF HOPE, priority 2020, dated 2024)

Assays:
[1] = tested on: TXNIP mRNA; assay: TXNIP mRNA expression in THP1 cells under 25 mM glucose (RT-PCR); format: cell-based, human
Protocol: FIGS. 2A-2B. FIG. 2A: C30 and C38 inhibited TXNIP mRNA expression in THP1 cells. THP1 cells were cultured under 25 mM glucose with the indicated concentrations of compounds for 72 hours. Cells were then collected for total RNA preparation. RT-PCR was performed, and data shown are the mean±SEM from triplicates. Statistical analysis was performed using one-way ANOVA, *p<0.0001. FIG. 2B: C30 and C38 inhibited TNF-α mRNA expression in THP1 cells. THP1 cells were cultured under 25 mM glucose with various concentrations of compounds as indicated for 72 hours and collected for total RNA preparation. RT-PCR was performed, and data shown are the mean±SEM from triplicates. Statistical analysis was performed using one-way ANOVA: *<0.02; **<0.0001.
FIG. 6. C38 analogues effects on TXNIP mRNA expression in THP1 cells. THP1 cells were cultured under 25 mM glucose with 2.5 uM of compounds for 72 h. Total RNA was collected. RT-PCR was performed in triplicate and data shown are the mean±SEM. Statistical analysis was performed using one-way ANOVA: *p<0.0001.
FIG. 7. C38 and analogue E2 effects on TXNIP mRNA levels in THP cells. THP1 cells were cultured under 25 mM glucose with several concentration of C38 and E2 as indicated for 72 hours. Total RNA was prepared. RT-PCR was performed in triplicate and data shown are the mean±SEM. Statistical analysis was performed for each column vs. without compound control using one-way ANOVA: *p<0.0001.
C30 and C38 inhibited TXNIP mRNA expression in THP1 cells.
Discovery of lead compound analogues. A search of chemical libraries was performed in the interest of identifying possible lead compound analogues. Analogues to C38 were identified. To determine the properties of the analogues, we treated THP1 cells with the E batch compounds for three days, prepared RNA and measured TXNIP mRNA levels.
RNA extraction and quantitative RT-PCR. RNA was extracted using the Direct-zol™ RNA MiniPrep Plus (Zymo Research). Reverse transcription of RNA samples into cDNA was performed using the GeneAmp RNA PCR Kit (Applied Biosystems), dNTP (from Roche Applied Science), Rnase inhibitor, MULV Reverse Transcriptase and Random hexamers reagent (all from Invitrogen). Diluted cDNA was quantified using real-time PCR performed with Power SYBR Green qPCR MasterMix (Applied Biosystem) and 7500 real-time PCR system (Applied Biosystems). The HPRT1 gene was used as an internal control.

[2] = tested on: TXNIP; settings: literature (Nature Med. 2018); cited from earlier work

For `COc1ccc(CCNc2ncnc3c2oc2ccccc23)cc1OC` [Compound E2], the “TXNIP mRNA expression (C38 analogues screen)” value ([1]; 2.5 uM compound, 72 h) was “strongly inhibited TXNIP mRNA expression” and the “TXNIP mRNA levels, E2 compared with C38” value ([1]; several concentrations, 72 hours) was “moderately better than C38”.

For `COc1ccc(CCN(C)CCCC(C#N)(c2ccc(OC)c(OC)c2)C(C)C)cc1OC` (stereo not drawn) [Verapamil], the “expression of TXNIP” value [2] is given as “inhibit the expression of TXNIP”.
